This passage reports IC50 results from patent publication US9783536B2, “Nitrogen-containing heterocyclic compound or salt thereof” (FUJIFILM Corporation, priority 2013, dated 2017).

The target of assay [1] is T1, GST fusion human ERK2 protein (Homo sapiens, UniProt P28482).
T1 construct: purchased Carna Biosciences, Inc; host or cells: E. coli expression system
Briefly: ERK2 enzyme assay (2). Format: biochemical. Particulars: ERK2 enzyme assay (2); read-out: ERK2 enzyme inhibitory activity (2). Put shortly: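 IC50 values come from mobility-shift measurement of phosphorylated versus unphosphorylated 5-FAM peptide substrate after EDTA quench. Beforehand, compound and 1.25 nmol/L E. coli-expressed GST–human ERK2 stood 15 min at room temperature (pH 7.5), then 1 mmol/L ATP and 4.25 μmol/L substrate (final) were added for 120 min at 25 °C.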

Assay [2] deals with T1, GST fusion human ERK2 protein. Briefly: ERK2 enzyme assay (1). Format: biochemical. Particulars: ERK2 enzyme assay (1); read-out: ERK2 enzyme inhibitory activity (1). Put shortly: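 IC50 derived from the proportion of phosphorylated 5-FAM peptide, separated from unphosphorylated peptide by microfluidic mobility shift. Compound was first preincubated 15 min at room temperature with 2.5 nmol/L kinase at pH 7.5, then 43.1 μmol/L ATP plus 4.25 μmol/L substrate reacted 120 min at 25 °C.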

Assay [3] concerns CHO-K1 cells. Briefly: CHO cell toxicity test. Format: cell-based, Chinese hamster. The conditions noted are these: Cricetulus griseus; CHO-K1 cells, 24 hours culture with compound, CellTiter-Glo; read-out: IC50 value (concentration at which the number of viable cells was suppressed to 50% or less). The method in brief: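 CHO-K1 cells were cultured 24 h, then exposed 24 h to compound at final 25.00 to 0.20 μmol/L in F-12 with 2% FCS. Viability read by CellTiter-Glo luminescence; inhibition % = 100 − (treated/untreated signal)×100.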

The target in assay [4] is T2, human PI3Kα protein (Homo sapiens, UniProt P42336).
T2 construct: purchased Carna Biosciences, Inc; host or cells: baculovirus expression system
Briefly: PI3Kα enzyme assay (ADP-Glo). Format: biochemical. The conditions noted are these: read-out: PI3Kα enzyme inhibitory activity. Put shortly: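 Biotinylated human PI3Kα (baculovirus-expressed, 4.5 nmol/L) pre-incubated 15 min with compound in Tris-HCl pH 7.5, MgCl2, BSA; reaction 60 min at 25° C with 50 μmol/L PIP2 and 100 μmol/L ATP final. ADP quantified by ADP-Glo luminescence; IC50 calculated.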
On the technique in general: ADP-Glo turns the ADP formed in a reaction into a luminescent signal.

T2 sequence (P42336 whole entry): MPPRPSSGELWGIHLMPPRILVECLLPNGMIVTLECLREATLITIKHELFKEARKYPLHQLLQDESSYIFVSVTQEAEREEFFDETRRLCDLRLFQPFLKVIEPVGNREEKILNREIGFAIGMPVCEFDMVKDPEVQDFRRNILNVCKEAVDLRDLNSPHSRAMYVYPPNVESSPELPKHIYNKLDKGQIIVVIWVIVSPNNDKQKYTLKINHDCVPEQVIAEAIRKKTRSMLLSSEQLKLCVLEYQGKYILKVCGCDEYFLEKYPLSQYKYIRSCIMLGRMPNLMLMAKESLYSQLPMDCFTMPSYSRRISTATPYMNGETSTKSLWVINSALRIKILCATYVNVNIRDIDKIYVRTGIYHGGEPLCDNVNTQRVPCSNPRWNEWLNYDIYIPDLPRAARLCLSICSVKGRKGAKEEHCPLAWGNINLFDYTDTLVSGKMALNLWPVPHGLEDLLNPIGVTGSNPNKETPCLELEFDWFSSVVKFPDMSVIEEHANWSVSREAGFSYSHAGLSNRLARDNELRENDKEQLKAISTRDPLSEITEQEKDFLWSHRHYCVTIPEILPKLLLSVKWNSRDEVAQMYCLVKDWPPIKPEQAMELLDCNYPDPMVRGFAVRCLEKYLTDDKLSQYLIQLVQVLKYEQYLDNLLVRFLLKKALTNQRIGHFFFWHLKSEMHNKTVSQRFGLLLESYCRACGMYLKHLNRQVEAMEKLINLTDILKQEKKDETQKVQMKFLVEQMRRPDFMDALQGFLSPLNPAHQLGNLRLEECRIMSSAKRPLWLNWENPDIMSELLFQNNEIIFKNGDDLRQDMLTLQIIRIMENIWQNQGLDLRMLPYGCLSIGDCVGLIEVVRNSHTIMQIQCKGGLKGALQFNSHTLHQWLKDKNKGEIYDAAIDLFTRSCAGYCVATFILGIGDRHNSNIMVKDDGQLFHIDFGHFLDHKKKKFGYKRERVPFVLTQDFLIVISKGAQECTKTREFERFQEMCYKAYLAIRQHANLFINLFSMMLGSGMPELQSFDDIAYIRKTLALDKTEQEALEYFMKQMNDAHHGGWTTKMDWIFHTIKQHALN
T2 sequence (P27986 whole entry partner): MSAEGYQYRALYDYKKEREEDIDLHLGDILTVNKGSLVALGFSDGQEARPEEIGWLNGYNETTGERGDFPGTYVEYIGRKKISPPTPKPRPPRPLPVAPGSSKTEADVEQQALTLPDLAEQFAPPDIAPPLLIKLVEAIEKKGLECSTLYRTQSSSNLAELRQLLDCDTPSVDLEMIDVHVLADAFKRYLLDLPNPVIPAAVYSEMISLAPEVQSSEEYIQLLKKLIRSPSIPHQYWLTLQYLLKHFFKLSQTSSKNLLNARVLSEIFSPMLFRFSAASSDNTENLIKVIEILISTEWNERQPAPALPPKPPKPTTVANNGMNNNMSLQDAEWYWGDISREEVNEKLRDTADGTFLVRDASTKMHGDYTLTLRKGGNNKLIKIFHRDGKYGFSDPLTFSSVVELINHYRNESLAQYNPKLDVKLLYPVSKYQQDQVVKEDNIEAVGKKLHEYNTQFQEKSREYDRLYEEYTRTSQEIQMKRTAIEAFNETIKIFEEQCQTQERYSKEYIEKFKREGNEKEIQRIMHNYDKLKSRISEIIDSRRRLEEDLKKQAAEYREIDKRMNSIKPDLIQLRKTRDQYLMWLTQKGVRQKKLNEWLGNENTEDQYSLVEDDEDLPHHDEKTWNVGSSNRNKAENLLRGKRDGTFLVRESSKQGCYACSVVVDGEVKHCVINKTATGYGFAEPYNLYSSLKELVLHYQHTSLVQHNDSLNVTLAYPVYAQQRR
T1 sequence (P28482 whole entry, the tested form may be a part): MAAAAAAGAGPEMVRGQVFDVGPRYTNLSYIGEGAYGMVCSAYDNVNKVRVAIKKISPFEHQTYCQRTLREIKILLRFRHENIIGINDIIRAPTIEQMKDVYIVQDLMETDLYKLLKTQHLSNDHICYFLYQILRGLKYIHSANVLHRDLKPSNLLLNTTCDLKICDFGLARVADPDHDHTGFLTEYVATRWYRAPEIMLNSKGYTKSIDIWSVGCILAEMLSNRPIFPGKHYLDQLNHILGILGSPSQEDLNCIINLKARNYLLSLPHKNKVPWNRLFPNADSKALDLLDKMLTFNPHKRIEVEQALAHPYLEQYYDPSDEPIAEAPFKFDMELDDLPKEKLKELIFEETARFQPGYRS

Turning to `c1nc2ccc(Nc3nnc(CC4CCCO4)s3)nc2cc1-c1cnn(CCCN2CCCC2)c1` (stereo not drawn) [Example 0240], the IC50 was less than 1000 nM in assay [1], less than 1000 nM in assay [2], not below 25000 nM in assay [3] and less than 1000 nM in assay [4].
As to `Cn1cc(-c2cnc3ccc(Nc4nnc(CC5CCCO5)s4)nc3c2)cn1` (stereo not drawn) [Example 0241], the IC50 in assay [1] is less than 1000 nM; in assay [2], less than 1000 nM; in assay [3], not below 25000 nM; in assay [4], 1000 to 10000 nM.
`Cn1cc(-c2cnc3ccc(Nc4nnc(C5CCOC5)s4)nc3c2)cn1` (stereo not drawn) [Example 0243, N-(7-(1-methyl-1H-pyrazol-4-yl)-1,5-naphthyridin-2-yl)-5-(tetrahydrofuran-3-yl)-1,3,4-thiadiazole-2-amine]: the IC50 in assay [1] is less than 1000 nM; in assay [2], less than 1000 nM; in assay [3], not below 25000 nM; in assay [4], less than 1000 nM.
Regarding `CN1CCCC1c1nnc(Nc2ccc3ncc(-c4cnn(C)c4)cc3n2)s1` (stereo not drawn) [Example 0247, N-(7-(1-methyl-1H-pyrazol-4-yl)-1,5-naphthyridin-2-yl)-5-(1-methylpyrrolidin-2-yl)-1,3,4-thiadiazole-2-amine], the IC50 in assay [1] is less than 1000 nM; in assay [2], less than 1000 nM; in assay [3], not below 25000 nM; in assay [4] it was 1000 to 10000 nM.
`COc1cncc(Nc2cnc3ccc(Nc4nnc(CC5CCCO5)s4)nc3c2)c1` (stereo not drawn) [Example 0250, N^7-(5-methoxypyridin-3-yl)-N^2-(5-((tetrahydrofuran-2-yl)methyl)-1,3,4-thiadiazol-2-yl)-1,5-naphthyridine-2,7-diamine]: the IC50 is less than 1000 nM in assay [1], less than 1000 nM in assay [2], not below 25000 nM in assay [3] and less than 1000 nM in assay [4].
On to `CCc1cnnc(Nc2ccc3ncc(-c4cnn(CCCN5CCCC5)c4)cc3n2)c1` [Example 0291], for which the IC50 in assay [1] is less than 1000 nM; in assay [2] it was less than 1000 nM; in assay [3], not below 25000 nM; in assay [4], less than 1000 nM.
`CCCc1cnnc(Nc2ccc3ncc(-c4cnn(CCCN5CCCC5)c4)cc3n2)c1` [Example 0293]: the IC50 in assay [1] was less than 1000 nM; in assay [2] it was less than 1000 nM; in assay [3], not below 25000 nM; in assay [4], less than 1000 nM.
Turning to `OCCCn1cc(-c2cnc3ccc(Nc4nnc(C5CCCC5)s4)nc3c2)cn1` [Example 0316, 3-(4-(6-((5-cyclopentyl-1,3,4-thiadiazol-2-yl)amino)-1,5-naphthyridin-3-yl)-1H-pyrazol-1-yl)propan-1-ol], the IC50 was less than 1000 nM in assay [1], less than 1000 nM in assay [2], not below 25000 nM in assay [3] and less than 1000 nM in assay [4].
In the case of `Cc1nn(CCCN2CCCC2)cc1-c1cnc2ccc(Nc3nnc(C(C)C)s3)nc2c1` [Example 0321, 5-isopropyl-N-(7-(3-methyl-1-(3-(pyrrolidin-1-yl)propyl)-1H-pyrazol-4-yl)-1,5-naphthyridin-2-yl)-1,3,4-thiadiazole-2-amine], the IC50 in assay [1] is less than 1000 nM; in assay [2] it was less than 1000 nM; in assay [3] it was not below 25000 nM; in assay [4] it was less than 1000 nM.
With `c1nnc(Nc2ccc3ncc(-c4cnn(CCCN5CCCC5)c4)cc3n2)s1` [Example 0322], the IC50 in assay [1] was less than 1000 nM; in assay [2], less than 1000 nM; in assay [3], not below 25000 nM; in assay [4] it was less than 1000 nM.
Take `OCC(O)Cn1cc(-c2cnc3ccc(Nc4nnc(C5CCCC5)s4)nc3c2)cn1` (stereo not drawn) [Example 0338, 3-(4-(6-((5-Cyclopentyl-1,3,4-thiadiazol-2-yl)amino)-1,5-naphthyridin-3-yl)-1H-pyrazol-1-yl)propane-1,2-diol]: the IC50 is less than 1000 nM in assay [1], less than 1000 nM in assay [2], not below 25000 nM in assay [3] and less than 1000 nM in assay [4].
As to `O=C(CCn1cc(-c2cnc3ccc(Nc4nnc(C5CCCC5)s4)nc3c2)cn1)N1CCCC1` [Example 0341, 3-(4-(6-((5-cyclopentyl-1,3,4-thiadiazol-2-yl)amino)-1,5-naphthyridin-3-yl)-1H-pyrazol-1-yl)-1-(pyrrolidin-1-yl)propan-1-one], the IC50 in assay [1] is less than 1000 nM; in assay [2], less than 1000 nM; in assay [3], not below 25000 nM; in assay [4] it was less than 1000 nM.
As to `Cc1nn(C)cc1-c1cnc2ccc(Nc3nnc(C4CCCC4)s3)nc2c1` [Example 0347], the IC50 in assay [1] was less than 1000 nM; in assay [2], less than 1000 nM; in assay [3] it was not below 25000 nM; in assay [4], less than 1000 nM.
In the case of `Cc1c(-c2cnc3ccc(Nc4nnc(C5CCCC5)s4)nc3c2)cnn1C` [Example 0348], the IC50 in assay [1] was less than 1000 nM; in assay [2], less than 1000 nM; in assay [3], not below 25000 nM; in assay [4], 1000 to 10000 nM.
Turning to `FC1(F)CCN(CCCn2cc(-c3cnc4ccc(Nc5nnc(C6CCCC6)s5)nc4c3)cn2)C1` [Example 0352], the IC50 in assay [1] was less than 1000 nM; in assay [2], less than 1000 nM; in assay [3] it was not below 25000 nM; in assay [4], less than 1000 nM.
Turning to `COc1c(-c2cnn(C)c2)cnc2ccc(Nc3nnc(C4CCCC4)s3)nc12` [Example 0355, 5-cyclopentyl-N-(8-methoxy-7-(1-methyl-1H-pyrazol-4-yl)-1,5-naphthyridin-2-yl)-1,3,4-thiadiazole-2-amine], the IC50 in assay [1] was less than 1000 nM; in assay [2], less than 1000 nM; in assay [3] it was not below 25000 nM; in assay [4], less than 1000 nM.
`CC(C)c1nnc(Nc2ccc3ncc(-c4cnn(CCCN5CCCC5)c4)cc3n2)s1` [Example 0365]: the IC50 in assay [1] was less than 1000 nM; in assay [2] it was less than 1000 nM; in assay [3], not below 25000 nM; in assay [4], less than 1000 nM.
On to `CC(C)c1cnnc(Nc2ccc3ncc(-c4cnn(CCCN5CCOCC5)c4)cc3n2)c1` [Example 0368], for which the IC50 in assay [1] is less than 1000 nM; in assay [2], less than 1000 nM; in assay [3], not below 25000 nM; in assay [4], less than 1000 nM.
Turning to `CC(C)c1cnnc(Nc2ccc3ncc(-c4cnn(CCN5CCOCC5)c4)cc3n2)c1` [Example 0382, N-(5-isopropylpyridazin-3-yl)-7-(1-(2-morpholinoethyl)-1H-pyrazol-4-yl)-1,5-naphthyridine-2-amine], the IC50 in assay [1] was less than 1000 nM; in assay [2] it was less than 1000 nM; in assay [3] it was not below 25000 nM; in assay [4], less than 1000 nM.
As to `Cc1nn(CCCN2CCOCC2)cc1-c1cnc2ccc(Nc3cc(C(C)C)cnn3)nc2c1` [Example 0384, N-(5-isopropylpyridazin-3-yl)-7-(3-methyl-1-(3-morpholinopropyl)-1H-pyrazol-4-yl)-1,5-naphthyridine-2-amine], the IC50 in assay [1] is less than 1000 nM; in assay [2] it was less than 1000 nM; in assay [3], not below 25000 nM; in assay [4] it was less than 1000 nM.
`CC1(C)COc2nnc(Nc3ccc4ncc(-c5cnn(CCCN6CCCC6)c5)cc4n3)cc21` [Example 0401, 5,5-Dimethyl-N-(7-(1-(3-(pyrrolidin-1-yl)propyl)-1H-pyrazol-4-yl)-1,5-naphthyridin-2-yl)-5,6-dihydrofuro[2,3-c]pyridazine-3-amine]: the IC50 was less than 1000 nM in assay [1], less than 1000 nM in assay [2], not below 25000 nM in assay [3] and less than 1000 nM in assay [4].
Take `CN(C)c1cnnc(Nc2ccc3ncc(-c4cnn(CCCN5CCCC5)c4)cc3n2)c1` [Example 0403, N^5,N^5-dimethyl-N^3-(7-(1-(3-(pyrrolidin-1-yl)propyl)-1H-pyrazol-4-yl)-1,5-naphthyridin-2-yl)pyridazine-3,5-diamine]: the IC50 in assay [1] is less than 1000 nM; in assay [2] it was less than 1000 nM; in assay [3], not below 25000 nM; in assay [4], less than 1000 nM.
Take `CC(C)c1cnnc(Nc2ccc3ncc(-c4cnn(CCCO)c4)cc3n2)c1` [Example 0473]: the IC50 was less than 1000 nM in assay [1], less than 1000 nM in assay [2], not below 25000 nM in assay [3] and less than 1000 nM in assay [4].
Turning to `CC(C)c1cnnc(Nc2ccc3ncc(-c4cnn(CCC(C)(C)O)c4)cc3n2)c1` [Example 0474], the IC50 was less than 1000 nM in assay [1], less than 1000 nM in assay [2], not below 25000 nM in assay [3] and less than 1000 nM in assay [4].
